# Experimental data from patent publication US9696323B2, “Biomarkers for chagas disease related cardiomyopathy” (THE BOARD OF REGENTS OF THE UNIVERSITY OF TEXAS SYSTEM, priority 2013, dated 2017).
# Tests used:
# [1] = system: T. cruzi; assay: Oxidative modification (carbonylation) of plasma proteins in chagasic rats treated with PBN and/or BZ; assay type: in vivo, rat; settings: chagasic rat plasma; 5 of 11 carbonylated proteins (CFB, CFH, SERPRINA1, SERPINC1, PLG)
# Text: Certain embodiments include biomarkers identified in a previous study. Parasite persistence and oxidative damage in the heart are known to be of pathological significance during Chagas disease (Zacks et al., (2005) An Acad Bras Cienc, 77, 695-715; Gupta et al., (2009) Interdiscip Perspect Infect Dis, 2009, 190354). […] In the previous study the inventors identified 92 proteins that were differentially expressed or oxidized in chagasic plasma. Functional analysis allocated a majority of these proteins to inflammation/immunity and lipid metabolism categories, and to molecular pathways associated with cardiovascular dysfunction, e.g., myocardial infarction, hypertrophy, and fibrosis, and pulmonary embolism and hypertension. Some proteins in chagasic rats treated with PBN and/or BZ were allocated to curative pathways (immune regulation and cardiac remodeling). The 2D-GE results were validated by Western blotting. […] Increased plasma levels of GSN, MYL2, and VIM were directly correlated with the severity of cardiac disease in human chagasic patients. […] These findings have utility in diagnosing disease severity and designing suitable therapy for management of human chagasic patients. […]
# [2] = 2D-GE plasma proteome profile (differential protein expression) of T. cruzi-infected rats treated with PBN and/or BZ; assay type: in vivo, rat; settings: plasma
# Text: Certain embodiments include biomarkers identified in a previous study. Parasite persistence and oxidative damage in the heart are known to be of pathological significance during Chagas disease (Zacks et al., (2005) An Acad Bras Cienc, 77, 695-715; Gupta et al., (2009) Interdiscip Perspect Infect Dis, 2009, 190354). […] In the previous study the inventors identified 92 proteins that were differentially expressed or oxidized in chagasic plasma. Functional analysis allocated a majority of these proteins to inflammation/immunity and lipid metabolism categories, and to molecular pathways associated with cardiovascular dysfunction, e.g., myocardial infarction, hypertrophy, and fibrosis, and pulmonary embolism and hypertension. Some proteins in chagasic rats treated with PBN and/or BZ were allocated to curative pathways (immune regulation and cardiac remodeling). The 2D-GE results were validated by Western blotting. […] Increased plasma levels of GSN, MYL2, and VIM were directly correlated with the severity of cardiac disease in human chagasic patients. […] These findings have utility in diagnosing disease severity and designing suitable therapy for management of human chagasic patients.
# Ingenuity Pathway Analysis (IPA) is a highly curated and comprehensive software used for the integration of proteins into networks and pathways with biological meaning (Thomas and Bonchev, (2010). Hum Genomics, 4, 353-360). Network analysis of the plasma proteome profile of chagasic rats identified four major sub-networks linked to host response to T. cruzi infection and disease development (Table V). The maximal numbers of the differentially expressed plasma proteins (19 proteins) in chagasic rats were associated with antigen presentation and inflammatory response category (Table V) and indicators of persistent inflammation, known to be of pathological significance in Chagas disease (Dhiman et al., (2009) Clinical and Vaccine Immunology, 16, 660-666; Tanowitz et al., (2009) Prog Cardiovasc Dis, 51, 524-539; Junqueira et al., (2010) Expert Rev Mol Med, 12, e29). Following functional analysis of the inflammation-associated proteins, 12 proteins (APOA1, APOE, C3, CFB, CFH, FGB, GSN, KRT10, PLG, SCG2, SERPINA1, and SERPINC1) were identified as being involved in immune cell trafficking and cell movement of leukocytes, granulocytes, phagocytes, neutrophils, and dendritic and antigen presenting cells. Some of the differentially expressed proteins in inflammation category were associated with activation (APOE, C3, CFH, GC and PLG), chemotaxis (C3, SCG2, SERPINA1, SERPINC1), and infiltration of leukocytes (APOA1, APOE, C3, PLG, KRT10) and neutrophils (C3, CFB, CFH, PLG). Up regulation of APOE, APOA1, APOH, GC and PLG in chagasic plasma was indicative of activation, binding and accumulation of macrophages in the disease state. Of the 19 differentially expressed inflammation-associated proteins, 11 proteins (APOE, C3, CFB, CFH, GSN, KRT10, SCG2, SERPINA1, SERPINC1, GC, and PLG) were carbonylated in chagasic plasma. […] Other proteins (APOE, C3, KRT3, and SCG2) were exposed to oxidation due to T. cruzi-induced, acute oxidative stress, but were normalized in expression and oxidation during the chronic phase.
# Seventeen of the differentially expressed proteins in chagasic plasma, i.e., AFM, C4BPA, CACNA1D, DLGAP2, GC, KNG1, MUG1, MYLPF, MY05A, MY05B, PRPH, PZP, RAI14, and SCG2, were allotted to the lipid metabolism/molecular transport/small molecule biochemistry category (Table V) and functionally linked by IPA network analysis to lipid, fatty acid, and carbohydrate metabolism. A majority of the proteins in this category, i.e., ALB, APOA1, APOA4, APOE, APOH, C3, GC, GNAQ, MY05A, PLG, SCD2, SERPINA1, SERPINC1 and VIM, were linked to the synthesis, metabolism, transport, and modification of lipids and fatty acids, and to uptake and release or efflux of lipids, eicosanoids, and cholesterol. […]
# [3] = system: T. cruzi; settings: infected rats; BZ parasite-induced, PBN oxidative stress-induced (Wen et al. 2006, 2010); cited from earlier work
smiles,measurement,setting,value
CC(C)(C)/[N+]([O-])=C/c1ccccc1 [PBN],oxidative modification of inflammation-associated plasma proteins,[1],prevented the oxidative modification of five of these proteins
same,"Spot# 106 Average Normalized Density × 100,000",[2]; RAP group (acute infection),1.70
same,"Spot# 106 Average Normalized Density × 100,000",[2]; RCP/RCB/RCPB groups (chronic infection),6.94
same,controlling parasite- and oxidative stress-induced pathology,[3],beneficial effects
